Reference: patent US11628174B1, “Pharmaceutical compositions and methods for treating insomnia” (priority 2022, dated 2023)

Legend:
[1] = tested on: anti-IgE-induced release of prostaglandin D2 (PGD2) and leukotrienes C4/D4; release of cytokines; details: background statement, cited from earlier work
insomnia = assay: Clinical case reports: treatment of patients with insomnia; assay type: in vivo, human
REM sleep = details: background statement; cited from earlier work
[2] = Clinical case reports: tolerability and side effects in patients with insomnia
Procedure: A patient had insomnia for more than 2 months before they were provided with medications.
A patient had insomnia for more than 3 months. […] After that, they were treated with the combination of ebastine (10 mg) and alprazolam (0.4 mg) daily.

allergic rhinitis = assay: Clinical case report: allergic rhinitis in a patient with insomnia; assay type: in vivo, human; details: Example 1; ebastine 20 mg once a day, about 3 months

CC(C)(C(=O)O)c1ccc(C(=O)CCCN2CCC(OC(c3ccccc3)c3ccccc3)CC2)cc1 [carebastine]
release of PGD2 ([1]; metabolite of ebastine): inhibits

Cc1nnc2n1-c1ccc(Cl)cc1C(c1ccccc1)=NC2 [alprazolam, 8-chloro-1-methyl-6-phenyl-4H-s-triazolo[4,3-a] [1,4]benzodiazepine]
chronic insomnia along with depression, improvement (insomnia; Example 2, person, alprazolam 0.8 mg twice daily, 2 months): no improvement
REM latency (REM sleep): increases
length of REM periods and frequency of REM burst activities (REM sleep): significantly decreases

Cc1ccc(-c2nc3ccc(C)cn3c2CC(=O)N(C)C)cc1 [zolpidem]
tolerability (side effects of headache and dizziness) ([2]; Example 3, person, zolpidem 10 mg daily for 1 month): could not tolerate the side effects of headache and dizziness

CC(C)(C)c1ccc(C(=O)CCCN2CCC(OC(c3ccccc3)c3ccccc3)CC2)cc1 [ebastine, 4-diphenylmethoxy-1-[3-(4-tert-butylbenzoyl)-propyl] piperidine]
allergic rhinitis improvement (allergic rhinitis): only improved marginally
anti-IgE-induced release of prostaglandin D2 (PGD2) and leukotrienes C4/D4 (LTC4/D4) [1]: significantly inhibits
release of cytokines, including GM-CSF, tumour necrosis factor-a and interleukin-8 [1]: inhibited
insomnia (difficulty of falling to asleep) improvement (insomnia; Example 1, person, ebastine 20 mg once a day, about 3 months): no improvement

CN1CCN(C(=O)O[C@H]2c3nccnc3C(=O)N2c2ccc(Cl)cn2)CC1 [eszopiclone]
tolerability (side effects of headache and dizziness) ([2]; Example 3, eszopiclone 1 mg daily for 2 weeks): could not tolerate the side effects of headache and dizziness
tolerability (adverse reaction of headache) ([2]; Example 4, person, eszopiclone 1 mg daily for one week): could not tolerate its adverse reaction of headache
